Data published in patent publication US20070142437A1, “CHEMICAL COMPOUNDS” (priority 2005, published 2007).
pIC50: −log10 of the molar value.

What was measured:
Type in all cases: biochemical
CDK2 = molecular target: T1, CDK2 (Homo sapiens, UniProt P24941); assay: CDK2 substrate phosphorylation assay (biotinylated peptide, 32P-ATP); conditions: Inhibition of CDK2
T1 construct: made in house
Experimental: (§1) The compounds of the present invention have valuable pharmacologic properties. Different compounds from this class are particularly effective at inhibiting CDK2 and/or CDK4 enzymes at concentrations, which range from 0.0001 to 1 μM and additionally show specificity relative to other kinases. Substrate phosphorylation assays were carried out as follows:
Cyclin dependent protein kinase 2 assays utilized the peptide Biotin-aminohexyl-ARRPMSPKKKA-NH2 as phosphoryl group acceptor. CDK2 was expressed utilizing a baculovirus expression system and was partially purified to comprise 20-80% of total protein, with no detectable competing reactions present. Typically, assays were performed by incubating enzyme (0.2-10 nM), with and without inhibitor, peptide substrate (1-10 nM), [g-^32P]ATP (1-20 nM), and 10-20 mM Mg^2+ for periods of time generally within the range 10-120 minutes. Reactions were terminated with 0.2-2 volumes of either 20% acetic acid or 50-100 mM EDTA buffered to pH 7 (substrate consumption <20%). The buffer employed in enzyme assay was 100 mM HEPES pH 7.5 containing 0.1 mg/mL BSA and 5% DMSO. Inhibitors were diluted in 100% DMSO prior to addition into the assay. Detection of peptide phosphorylation was accomplished by scintillation counting following either collection of peptide onto phosphocellulose filters (for reactions stopped with acetic acid), collection of peptide in wells of 96 well plates coated with Streptavidin (Pierce) (reactions were stopped with EDTA), or addition of Avidin coated Scintillant impregnated beads (Scintillation Proximity Assays from Amersham, reactions were stopped with EDTA). Counts detected by any of these methodologies minus the appropriate background (assays with additional 40 mM EDTA or lacking peptide substrate) were assumed to be proportional to the reaction initial rates, and IC50s were determined by a least squares fit to the equation CPM=Vmax*(1−([I]/(K+[I])))+nsb, or −pIC50s were determined by a fit to the equation CPM=nsb+(Vmax−nsb)/(1+(x/10^x−pIC50)), where nsb are the background counts. Filters are washed four times with 75 mM phosphoric acid. Radioactivity was determined by liquid scintillation counting.

hVEGFR2 = hVEGFR2 (Homo sapiens, UniProt P35968); assay: VEGFR2 HTRF assay; conditions: Inhibition of VEGFR2
hVEGFR2, sequence (P35968 20-1356): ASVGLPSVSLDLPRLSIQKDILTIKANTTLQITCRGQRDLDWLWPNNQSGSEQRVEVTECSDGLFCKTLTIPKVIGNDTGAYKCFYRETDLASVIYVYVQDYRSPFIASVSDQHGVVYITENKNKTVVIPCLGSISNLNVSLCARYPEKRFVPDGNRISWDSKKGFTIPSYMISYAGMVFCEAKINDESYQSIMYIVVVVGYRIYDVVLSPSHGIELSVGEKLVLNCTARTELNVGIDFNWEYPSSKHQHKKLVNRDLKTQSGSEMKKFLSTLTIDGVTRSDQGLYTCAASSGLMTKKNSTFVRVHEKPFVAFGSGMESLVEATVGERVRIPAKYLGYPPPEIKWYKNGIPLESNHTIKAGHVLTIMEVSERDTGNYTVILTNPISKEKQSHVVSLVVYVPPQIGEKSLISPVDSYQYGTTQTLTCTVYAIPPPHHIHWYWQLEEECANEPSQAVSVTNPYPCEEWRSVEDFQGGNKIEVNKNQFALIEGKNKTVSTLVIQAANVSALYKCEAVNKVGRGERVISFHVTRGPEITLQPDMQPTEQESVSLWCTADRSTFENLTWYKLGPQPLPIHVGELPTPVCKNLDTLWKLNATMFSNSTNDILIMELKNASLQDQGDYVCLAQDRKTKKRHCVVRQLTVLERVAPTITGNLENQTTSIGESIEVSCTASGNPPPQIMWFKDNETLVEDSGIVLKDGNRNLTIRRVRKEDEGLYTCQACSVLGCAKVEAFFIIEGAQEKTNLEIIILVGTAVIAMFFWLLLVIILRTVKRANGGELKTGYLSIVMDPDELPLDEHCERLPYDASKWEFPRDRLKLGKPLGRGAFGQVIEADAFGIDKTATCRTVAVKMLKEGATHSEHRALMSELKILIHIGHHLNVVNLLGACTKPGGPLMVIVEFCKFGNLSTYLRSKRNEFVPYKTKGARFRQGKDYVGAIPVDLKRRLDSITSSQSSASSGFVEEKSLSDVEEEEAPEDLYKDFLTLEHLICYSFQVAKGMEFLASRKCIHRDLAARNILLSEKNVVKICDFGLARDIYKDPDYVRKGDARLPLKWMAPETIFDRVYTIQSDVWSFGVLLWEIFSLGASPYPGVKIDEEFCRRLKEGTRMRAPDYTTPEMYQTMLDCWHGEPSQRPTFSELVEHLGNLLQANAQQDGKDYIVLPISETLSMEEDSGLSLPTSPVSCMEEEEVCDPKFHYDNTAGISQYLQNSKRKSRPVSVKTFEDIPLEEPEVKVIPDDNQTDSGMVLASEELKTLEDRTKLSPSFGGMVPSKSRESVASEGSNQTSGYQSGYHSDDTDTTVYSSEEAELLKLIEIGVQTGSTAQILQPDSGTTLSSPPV
Experimental: The compounds of the present invention elicit important and measurable pharmacological responses. Different compounds from this class are particularly effective at inhibiting VEGFR2 enzymes, as described by the VEGFR2 HTRF assay below, at concentrations, which range from 0.0001 to 1 μM.
The assays were performed in 96-well black plates. 10 nM hVEGFR2 was used to phosphorylate 0.36 μM peptide (Biotin-Ahx-EEEEYFELVAKKKK) in the presence of 75 μM ATP, 5 mM MgCl2, 0.3 mM DTT, 0.1 mg/ml BSA, and 0.1 M HEPES (pH 7.5). 10 μl 0.5 M EDTA was added to reactions as negative controls. The 50 μl kinase reaction with or without inhibitors in 5% DMSO was carried out at room temperature for 45 minutes, then stopped by 40 μl of 125 mM EDTA. 2.4 μg/ml Streptavidin-APC and 0.15 μg/ml Eu-α-pY, in the presence of 0.1 mg/ml BSA, 0.1 M HEPES (pH7.5), were added to a final volume of 140 μl. The plate was incubated for 10 min at room temperature (22° C.) and read on the Victor with the time resolved fluorescence mode by exciting at 340 nm and reading the emission at 665 nm.
• Peptide from Synpep (Dublin, Calif.) • ATP, MgCl2, DTT, BSA, HEPES, EDTA, DMSO from Sigma Streptavidin-APC from Molecular Probes (Eugene, Oreg.) • Eu-α-pY from EG&G Wallac (Gaithersburg, Md.)

CDK4 = molecular target: T2, CDK4 (Homo sapiens, UniProt P11802); assay: CDK4 substrate phosphorylation assay (Rb protein, 33P-ATP); conditions: Inhibition of CDK4
T2 construct: made in house
T2 sequence (P11802 whole entry, species assumed): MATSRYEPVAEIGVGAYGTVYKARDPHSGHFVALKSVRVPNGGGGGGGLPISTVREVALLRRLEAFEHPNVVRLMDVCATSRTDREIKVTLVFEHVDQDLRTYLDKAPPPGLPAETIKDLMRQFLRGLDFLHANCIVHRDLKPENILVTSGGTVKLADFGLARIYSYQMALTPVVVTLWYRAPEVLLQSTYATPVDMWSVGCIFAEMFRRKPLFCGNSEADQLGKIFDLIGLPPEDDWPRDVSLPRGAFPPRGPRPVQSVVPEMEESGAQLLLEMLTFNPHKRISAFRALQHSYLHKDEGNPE
T2 sequence (P24385 whole entry partner, species assumed): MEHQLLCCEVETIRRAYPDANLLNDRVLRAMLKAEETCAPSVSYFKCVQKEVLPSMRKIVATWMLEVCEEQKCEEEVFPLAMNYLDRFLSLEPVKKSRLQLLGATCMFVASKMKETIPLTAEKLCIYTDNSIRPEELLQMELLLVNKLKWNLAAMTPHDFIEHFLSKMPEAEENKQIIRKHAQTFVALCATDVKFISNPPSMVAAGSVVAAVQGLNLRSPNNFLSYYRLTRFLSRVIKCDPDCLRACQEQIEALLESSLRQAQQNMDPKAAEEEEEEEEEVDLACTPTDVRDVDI
Experimental: as §1
Cyclin D1 and cyclin-dependent kinase 4 were expressed utilizing a baculovirus expression system. The catalytic activity of CDK4 protein was assayed by measuring the phosphorylation of Rb protein. A truncated Rb protein (residues 773-928 of the native retinoblastoma protein, fused to glutathione S-transferase to facilitate purification) was used as the phosphoryl acceptor. The assay conditions were 100 mM HEPES (N-[2-hydroxyethyl]piperzine-N′-[2-ethanesulfonic acid]), pH 7.5, 0.5 μM GST-Rb protein, 1 μCi/mL [^33P]-ATP (1 nM-20 μM), 5-20 mM MgCl2, 2.5 mM EDTA, 1 mM dithiotheitol, 0.2 mg/mL bovine serum albumin, 2% (v/v) dimethyl sulfoxide (DMSO), CDK4 enzyme (5-50 nM) in a final volume of 50 μL. Reactions were incubated for time periods of 10-60 min at 30° C. and terminated by the addition of 50 μL quench (1 mM ATP/100 mM EDTA, pH 7.0). Detection of protein phosphorylation was accomplished by scintillation counting following collection of protein in 96 well plates coated with Glutathione or trapping of protein onto phosphocellulose filters. Counts detected by these methodologies minus the appropriate background were assumed to be proportional to the reaction initial rates. IC50 values were determined by measuring enzyme activity in the presence of different inhibitor concentrations (0.1 nM to 50 μM). IC50s were determined by a least squares fit to the equation CPM=Vmax*(1−([I]/(K+[I])))+nsb, or pIC50s were determined by a fit to the equation CPM=nsb+(Vmax−nsb)/(1+(x/10^x−pIC50)), where nsb are the background counts.

| SMILES | pIC50 (CDK2) | pIC50 (hVEGFR2) | pIC50 (CDK4) |
| --- | --- | --- | --- |
| COc1cccc(-c2cnc(Nc3ccc(CN4CCCCC4)cc3)o2)c1 [Example 43, 5-(3-methoxyphenyl)-N-[4-(piperidin-1-ylmethyl)phenyl]-1,3-oxazol-2-amine] | > 6.00 | > 6.00 | > 7.00 |
| CN1CCN(c2ccc(Nc3ncc(-c4cccc(OC5CCCC5)c4)o3)cc2)CC1 [Example 13, 5-[3-(cyclopentyloxy)phenyl]-N-[4-(4-methylpiperazin-1-yl)phenyl]-1,3-oxazol-2-amine] | > 7.00 | > 7.00 | > 7.00 |
| COc1cccc(-c2cnc(Nc3ccc(N4CCOCC4)cc3)o2)c1 [Example 9, 5-(3-Methoxyphenyl)-N-(4-morpholin-4-ylphenyl)-1,3-oxazol-2-amine] | > 6.00 | > 6.00 | > 6.00 |
| COc1cccc(-c2cnc(Nc3ccc(N4CCN(C)CC4)nc3)o2)c1 [Example 31, N-[5-(3-methoxyphenyl)-1,3-oxazol-2-yl]-6-(4-methylpiperazin-1-yl)pyridin-3-amine] | > 6.00 | > 6.00 | > 6.00 |
| CN1CCN(c2ccc(Nc3ncc(-c4cccc(OCc5ccccc5)c4)o3)cc2)CC1 [Example 15, 5-[3-(Benzyloxy)phenyl]-N-[4-(4-methylpiperazin-1-yl)phenyl]-1,3-oxazol-2-amine] | > 6.00 | > 6.00 | > 7.00 |
| CCCOc1cccc(-c2cnc(Nc3ccc(N4CCN(C)CC4)cc3)o2)c1 [Example 17, N-[4-(4-methylpiperazin-1-yl)phenyl]-5-(3-propoxyphenyl)-1,3-oxazol-2-amine] | > 6.00 | > 7.00 | > 7.00 |
| CCN1CCN(c2ccc(Nc3ncc(-c4ccccc4)o3)cc2)CC1 [Example 7, N-[4-(4-Ethylpiperazin-1-yl)phenyl]-5-phenyl-1,3-oxazol-2-amine] | > 5.00 | > 6.00 | > 6.00 |
| COc1cccc(-c2cnc(Nc3ccc(N4CCN(C)CC4)c(Cl)c3)o2)c1 [Example 19, N-[3-chloro-4-(4-methylpiperazin-1-yl)phenyl]-5-(3-methoxyphenyl)-1,3-oxazol-2-amine] | > 6.00 | > 6.00 | > 7.00 |
| CCN(CC)CCNC(=O)c1ccc(Nc2ncc(-c3cccc(OC)c3)o2)cc1 [Example 46, N-[2-(diethylamino)ethyl]-4-{[5-(3-methoxyphenyl)-1,3-oxazol-2-yl]amino}benzamide] | > 6.00 | > 6.00 | > 6.00 |
| COc1cccc(-c2cnc(Nc3ccc(CN4CCOCC4)cc3)o2)c1 [Example 11, 5-(3-Methoxyphenyl)-N-[4-(morpholin-4-ylmethyl)phenyl]-1,3-oxazol-2-amine] | > 6.00 | > 6.00 | > 6.00 |
| COc1cccc(-c2cnc(Nc3ccc(CN4CCN(C)CC4)cc3)o2)c1 [Example 38, 5-(3-methoxyphenyl)-N-{4-[(4-methylpiperazin-1-yl)methyl]phenyl}-1,3-oxazol-2-amine] | > 6.00 | > 6.00 | > 6.00 |
